{
  "source": "patent US4112228A",
  "about": "“7-(D-α-Hydroxy-2-arylacetamido)-3-(2-carboxyalkyl-2,3-dihydro-s-tri azolo-[4,3-b]pyridazin-3-on-6-ylthiomethyl)-3-cephem-4-carboxylic acids and derivatives” (priority 1977, dated 1978)",
  "key": {"P. vulgaris A9436 (Pv-1)": {"tested_on": "P. vulgaris A9436 (Pv-1)", "test": "Standard experimental infection (single sc treatment)", "details": "Run C-808, single sc"}, "Serr. marcescens": {"tested_on": "Serr. marcescens", "test": "MIC by Steers' agar dilution method", "details": "Serratia marcescens"}, "[1]": {"test": "Blood levels in mice after subcutaneous administration", "type": "in vivo", "details": "mouse, read-out: Blood level; for concentration at 0.25 h: 15'; for concentration at 0.5 h: 30'; for concentration at 1 h: 60'; for concentration at 2 h: 120'", "experimental": "Groups of mice were administered subcutaneously graded doses of 40, 20 and 10 mg./kg.."}, "Shig. flexneri": {"tested_on": "Shig. flexneri", "test": "MIC by Steers' agar dilution method", "type": "cell-based", "details": "Shigella flexneri, MHA"}, "Pr. rettgeri": {"tested_on": "Pr. rettgeri", "test": "MIC by Steers' agar dilution method", "details": "Providencia rettgeri"}, "Pr. vulgaris": {"tested_on": "Pr. vulgaris", "test": "MIC by Steers' agar dilution method", "details": "Proteus vulgaris"}},
  "note": "Where two headings read alike, the source gives them in different places.",
  "data": [
    {"smiles": "O=C(O)Cn1nc2ccc(SCC3=C(C(=O)O)N4C(=O)C(NC(=O)[C@H](O)c5ccccc5)[C@H]4SC3)nn2c1=O", "note": "(stereo partly drawn) [BB-S488, 7-(D-Mandelamido)-3-(2-carboxymethyl-2,3-dihydro-s-triazolo[4,3-b]pyridazin-3-on-6-ylthiomethyl)-3-cephem-4-carboxylic Acid]", "values": [
      {"measurement": "No. of survivors/No. tested", "setting": "P. vulgaris A9436 (Pv-1); 1.6 mg./kg.", "value": "3/5"},
      {"measurement": "No. of survivors/No. tested", "setting": "P. vulgaris A9436 (Pv-1); 6.3 mg./kg.", "value": "5/5"},
      {"measurement": "No. of survivors/No. tested", "setting": "P. vulgaris A9436 (Pv-1); 25 mg./kg.", "value": "5/5"},
      {"measurement": "MIC", "setting": "Serr. marcescens; A20019, MHA, Table 1", "value": 100, "unit": "µg/mL"},
      {"measurement": "MIC", "setting": "Serr. marcescens; MHA, Example 10", "value": "> 100", "unit": "µg/mL"},
      {"measurement": "MIC", "setting": "Serr. marcescens; Sm-1 A20019 (β-lactamase), HIA, Table 4", "value": "> 100", "unit": "µg/mL"},
      {"measurement": "MIC", "setting": "Serr. marcescens; Sm-1 A20019 (β-lactamase), MHA, Table 4", "value": "> 100", "unit": "µg/mL"},
      {"measurement": "MIC", "setting": "Serr. marcescens; Sm-1 A20019 (β-lactamase), NA, Table 4", "value": "> 100", "unit": "µg/mL"},
      {"measurement": "MIC", "setting": "Serr. marcescens; Sm-1 A20019, MHA, Table 3", "value": 25, "unit": "µg/mL"},
      {"measurement": "MIC", "setting": "Serr. marcescens; Sm-2 A20335, MHA, Table 3", "value": 3.1, "unit": "µg/mL"},
      {"measurement": "MIC", "setting": "Serr. marcescens; Sm-3 A20336, HIA, Table 4", "value": "> 100", "unit": "µg/mL"},
      {"measurement": "MIC", "setting": "Serr. marcescens; Sm-3 A20336, MHA, Table 3", "value": 6.3, "unit": "µg/mL"},
      {"measurement": "MIC", "setting": "Serr. marcescens; Sm-3 A20336, MHA, Table 4", "value": 0.8, "unit": "µg/mL"},
      {"measurement": "MIC", "setting": "Serr. marcescens; Sm-3 A20336, NA, Table 4", "value": 100, "unit": "µg/mL"},
      {"measurement": "MIC", "setting": "Serr. marcescens; Sm-4 A20442, MHA, Table 3", "value": 6.3, "unit": "µg/mL"},
      {"measurement": "MIC", "setting": "Serr. marcescens; Sm-5 A20222, MHA, Table 3", "value": 3.1, "unit": "µg/mL"},
      {"measurement": "MIC", "setting": "Serr. marcescens; Sm-6 A20460, MHA, Table 3", "value": 6.3, "unit": "µg/mL"},
      {"measurement": "MIC", "setting": "Serr. marcescens; Sm-9 A20333, MHA, Table 3", "value": 6.3, "unit": "µg/mL"},
      {"measurement": "MIC", "setting": "Serr. marcescens; Sm-10 A20334, MHA, Table 3", "value": 6.3, "unit": "µg/mL"},
      {"measurement": "MIC", "setting": "Serr. marcescens; Sm-11 A20459, MHA, Table 3", "value": 6.3, "unit": "µg/mL"},
      {"measurement": "MIC", "setting": "Serr. marcescens; Sm-12 A20461, MHA, Table 3", "value": 6.3, "unit": "µg/mL"},
      {"measurement": "concentration at 0.25 h", "setting": "[1]; sc 10 mg./kg.", "value": 5000, "unit": "ng/mL"},
      {"measurement": "concentration at 0.5 h", "setting": "[1]; sc 10 mg./kg.", "value": 3000, "unit": "ng/mL"},
      {"measurement": "concentration at 1 h", "setting": "[1]; sc 10 mg./kg.", "value": 800, "unit": "ng/mL"},
      {"measurement": "concentration at 0.25 h", "setting": "[1]; sc 20 mg./kg.", "value": 7400, "unit": "ng/mL"},
      {"measurement": "concentration at 0.5 h", "setting": "[1]; sc 20 mg./kg.", "value": 6000, "unit": "ng/mL"},
      {"measurement": "concentration at 1 h", "setting": "[1]; sc 20 mg./kg.", "value": 4300, "unit": "ng/mL"},
      {"measurement": "concentration at 2 h", "setting": "[1]; sc 20 mg./kg.", "value": 700, "unit": "ng/mL"},
      {"measurement": "concentration at 0.25 h", "setting": "[1]; sc 40 mg./kg.", "value": 19000, "unit": "ng/mL"},
      {"measurement": "concentration at 0.5 h", "setting": "[1]; sc 40 mg./kg.", "value": 17000, "unit": "ng/mL"},
      {"measurement": "concentration at 1 h", "setting": "[1]; sc 40 mg./kg.", "value": 12000, "unit": "ng/mL"},
      {"measurement": "concentration at 2 h", "setting": "[1]; sc 40 mg./kg.", "value": 1600, "unit": "ng/mL"},
      {"measurement": "MIC", "setting": "Shig. flexneri; A9684, Table 1", "value": 12.5, "unit": "µg/mL"},
      {"measurement": "MIC", "setting": "Shig. flexneri; Example 10", "value": 25, "unit": "µg/mL"},
      {"measurement": "MIC", "setting": "Shig. flexneri; Sr-1 A9684, Table 3", "value": 12.5, "unit": "µg/mL"},
      {"measurement": "MIC", "setting": "Pr. rettgeri; A15167, MHA, Table 1", "value": 0.05, "unit": "µg/mL"},
      {"measurement": "MIC", "setting": "Pr. rettgeri; MHA, Example 10", "value": 0.2, "unit": "µg/mL"},
      {"measurement": "MIC", "setting": "Pr. rettgeri; Pr-1 A15167, HIA, Table 4", "value": 0.1, "unit": "µg/mL"},
      {"measurement": "MIC", "setting": "Pr. rettgeri; Pr-1 A15167, MHA, Table 3", "value": 0.1, "unit": "µg/mL"},
      {"measurement": "MIC", "setting": "Pr. rettgeri; Pr-1 A15167, MHA, Table 4", "value": 0.05, "unit": "µg/mL"},
      {"measurement": "MIC", "setting": "Pr. rettgeri; Pr-1 A15167, NA, Table 4", "value": 0.4, "unit": "µg/mL"},
      {"measurement": "MIC", "setting": "Pr. rettgeri; Pr-2 A9637, MHA, Table 3", "value": 0.1, "unit": "µg/mL"},
      {"measurement": "MIC", "setting": "Pr. rettgeri; Pr-4 A20645, MHA, Table 3", "value": 0.1, "unit": "µg/mL"},
      {"measurement": "MIC", "setting": "Pr. rettgeri; Pr-5 A20915, MHA, Table 3", "value": 0.2, "unit": "µg/mL"},
      {"measurement": "MIC", "setting": "Pr. rettgeri; Pr-6 A20920, MHA, Table 3", "value": 0.1, "unit": "µg/mL"},
      {"measurement": "MIC", "setting": "Pr. vulgaris; A9436, MHA, Table 1", "value": 0.1, "unit": "µg/mL"},
      {"measurement": "MIC", "setting": "Pr. vulgaris; A9699, MHA, Table 1", "value": 0.2, "unit": "µg/mL"},
      {"measurement": "MIC", "setting": "Pr. vulgaris; ATCC9920, Pv-4 ATCC 9920, MHA, Table 3", "value": 0.1, "unit": "µg/mL"},
      {"measurement": "MIC", "setting": "Pr. vulgaris; Pv-1 A9436, HIA, Table 4", "value": 0.2, "unit": "µg/mL"},
      {"measurement": "MIC", "setting": "Pr. vulgaris; Pv-1 A9436, MHA, Table 3", "value": 0.2, "unit": "µg/mL"},
      {"measurement": "MIC", "setting": "Pr. vulgaris; Pv-1 A9436, MHA, Table 4", "value": 0.1, "unit": "µg/mL"},
      {"measurement": "MIC", "setting": "Pr. vulgaris; Pv-1 A9436, NA, Table 4", "value": 0.2, "unit": "µg/mL"},
      {"measurement": "MIC", "setting": "Pr. vulgaris; Pv-2 A9526, MHA, Table 3", "value": 6.3, "unit": "µg/mL"},
      {"measurement": "MIC", "setting": "Pr. vulgaris; Pv-3 A9699 (β-lactamase), HIA, Table 4", "value": 100, "unit": "µg/mL"},
      {"measurement": "MIC", "setting": "Pr. vulgaris; Pv-3 A9699 (β-lactamase), MHA, Table 4", "value": 0.8, "unit": "µg/mL"},
      {"measurement": "MIC", "setting": "Pr. vulgaris; Pv-3 A9699 (β-lactamase), NA, Table 4", "value": 0.8, "unit": "µg/mL"},
      {"measurement": "MIC", "setting": "Pr. vulgaris; Pv-3 A9699, MHA, Table 3", "value": 6.3, "unit": "µg/mL"},
      {"measurement": "MIC", "setting": "Pr. vulgaris; Pv-5 A9539, MHA, Table 3", "value": 25, "unit": "µg/mL"},
      {"measurement": "MIC", "setting": "Pr. vulgaris; Pv-6 A9716, MHA, Table 3", "value": 0.1, "unit": "µg/mL"},
      {"measurement": "MIC", "setting": "Pr. vulgaris; Pv-7 A21240, MHA, Table 3", "value": 25, "unit": "µg/mL"},
      {"measurement": "MIC", "setting": "Pr. vulgaris; strain not given (1st of 2), MHA, Example 10", "value": 0.1, "unit": "µg/mL"},
      {"measurement": "MIC", "setting": "Pr. vulgaris; strain not named (2nd of 2), MHA, Example 10", "value": 0.8, "unit": "µg/mL"}
    ]}
  ]
}
